The source made the active and inactive calls. The rule behind the calls is not given here.
Tested on: Mycobacterium tuberculosis
Experiment: Antitubercular activity against Mycobacterium tuberculosis H37Rv at 6.25 ug/ml by BACTEC 460 radiometric assay
Format: functional

SMILES: CCCCC[C@@H](CCCCCCCCCC(=O)O)O[C@@H]1O[C@H](C)[C@H](O)[C@H](O)[C@H]1O[C@@H]1O[C@@H](C)[C@H](O[C@@H]2O[C@@H](C)[C@H](O[C@@H]3O[C@@H](C)[C@H](O)[C@@H](O)[C@H]3O)[C@@H](O)[C@H]2O[C@@H]2O[C@H](CO)[C@@H](O)[C@H](O)[C@H]2O)[C@@H](O)[C@H]1O
- Activity: inactive

SMILES: CCCCCCCCCCCC(=O)O[C@H]1[C@H](O[C@@H]2[C@@H](OC)[C@H]3OC(=O)CCCCCCCCC[C@H](CCCCC)O[C@@H]4O[C@H](C)[C@H](OC)[C@H](OC)[C@H]4O[C@@H]3O[C@H]2C)O[C@@H](C)[C@H](O[C@@H]2O[C@@H](C)[C@H](OC(=O)CC)[C@@H](OC)[C@H]2OC(=O)/C=C/c2ccccc2)[C@H]1O[C@@H]1O[C@H](COC)[C@@H](OC)[C@H](OC)[C@H]1OC
- Activity: inactive

SMILES: CCCCCCCCCCCC(=O)O[C@H]1[C@H](O[C@@H]2[C@@H](O)[C@H]3OC(=O)CCCCCCCCC[C@H](CCCCC)O[C@@H]4O[C@H](C)[C@H](O)[C@H](O)[C@H]4O[C@@H]3O[C@H]2C)O[C@@H](C)[C@H](O[C@@H]2O[C@@H](C)[C@H](OC(=O)CC)[C@@H](O)[C@H]2O)[C@H]1O[C@@H]1O[C@H](CO)[C@@H](O)[C@H](O)[C@H]1O
- Activity: inactive

SMILES: CCCCCCCCCCCC(=O)O[C@H]1[C@H](O[C@@H]2[C@@H](O)[C@H]3OC(=O)CCCCCCCCC[C@H](CCCCC)O[C@@H]4O[C@H](C)[C@H](O)[C@H](O)[C@H]4O[C@@H]3O[C@H]2C)O[C@@H](C)[C@H](O[C@@H]2O[C@@H](C)[C@H](OC(=O)CC)[C@@H](O)[C@H]2OC(=O)/C=C/c2ccccc2)[C@H]1O[C@@H]1O[C@H](CO)[C@@H](O)[C@H](O)[C@H]1O
- inhibition at 6.25 µg/mL: 13%
